These results are taken from the METLIN SMRT retention time set (Domingo-Almenara et al. 2019).

The data set can be described thus: gradient 5% acetonitrile 3 min, to 50% in 2 min, to 85% in 15 min, held 3 min, 100 µL/min. As to conditions: column: Zorbax Extend-C18 2.1 x 50 mm; eluents: water / acetonitrile, 0.1% formic acid. Put shortly: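 Retention time was recorded from adduct peaks, which were picked computationally and each inspected manually. Pure standards ran in mixtures of ~100 molecules on HPLC coupled to a quadrupole time-of-flight mass spectrometer, in positive and negative ionization mode, through a Zorbax Extend-C18 column (2.1 × 50 mm, 1.8 μm) at 100 μL/min. Eluents were water and acetonitrile, each with 0.1% formic acid.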
`O=C(CSc1nnc2c3cc(-c4ccccc4)nn3ccn12)Nc1cccc(C(F)(F)F)c1` displayed an RP-LC retention time of 969 s.

`O=C(NCCc1ccccn1)C1CCc2nc(N3CCCCC3)ncc2C1` (stereo not given) had an RP-LC retention time of 575 s. As for `Cc1ccc(CNC(=O)c2ccc3c(c2)CC(=O)N3C)o1`, the figure is 693 s; as for `O=C(Nc1ccccc1)C1CCCN(S(=O)(=O)c2c[nH]c(C(=O)N3CCCCCC3)c2)C1` (stereo not given), 876 s.

Compound `Cc1ccsc1C(=O)Nc1cnn(-c2ncncc2N2CCC(C)CC2)c1` gave an RP-LC retention time of 918 s. As for `COc1ccc(N2CCN(c3cc(SCC(=O)Nc4cc(Cl)ccc4OC)ncn3)CC2)cc1`, the figure is 1200 s; as for `O=C(Cn1nc2c(Oc3ccc(Cl)cc3)nccn2c1=O)NC1CCCCC1`, 881 s. As for `COc1cccc(Oc2nccnc2N2CCC(C(=O)N3CCN(c4ccccn4)CC3)CC2)c1`, the figure is 658 s; as for `CC(C)Cn1c(=O)c2cc(C(=O)NCc3ccncc3)nn2c2ccccc21`, 657 s. The compound `COCCCNC(=O)C1CCN(c2nc3cccnc3s2)CC1` displayed an RP-LC retention time of 623 s.

For the compound `Cc1ccc(C)c(NC(=O)N2CCC(N3CCN(Cc4ccccc4)C(=O)C3=O)CC2)c1`, the RP-LC retention time stood at 740 s. In turn, `Cc1nc(-c2cc3ccccc3nc2N2CCN(C(=O)c3cccs3)CC2)no1` returned an RP-LC retention time of 894 s. In turn, `CC(=O)SCC(Cc1ccccc1)C(=O)NCC(=O)OCc1ccccc1` (stereo not given) displayed an RP-LC retention time of 1080 s. As for `O=c1ccc(S(=O)(=O)N2CCOCC2)cn1Cc1ccccc1F`, the figure is 723 s.

Compound `COc1ccc(F)cc1S(=O)(=O)NCC1(c2cccs2)CC1` showed an RP-LC retention time of 933 s.

Consider `CC(C)CNC(=O)c1ccc2c(c1)CCCN2S(=O)(=O)c1ccccc1`, for which the RP-LC retention time is 936 s. For the compound `O=C(COc1ccccc1F)Nc1ccc2c(c1)CCC(=O)N2Cc1ccccc1`, the RP-LC retention time was determined as 860 s. The same measure for `Cn1nc(-c2nnc(-c3ccccc3F)o2)c2c1CCN(S(=O)(=O)c1cccc(C#N)c1)C2`: 885 s. As to `CCn1cc(-c2ccc(C)cc2)cc1C(=O)N1CCN(C)CC1`, the RP-LC retention time worked out at 657 s. `c1cc2c(cc1-c1noc(-c3ccc4c(c3)OCO4)n1)ncn2CCN1CCCC1` showed an RP-LC retention time of 634 s.

In turn, `O=C(N[C@@H]1CN(Cc2ccc3c(c2)CCO3)C[C@H]1CO)C1CCC1` registered an RP-LC retention time of 591 s. As for `O=C(NCCCN1CCOCC1)c1nc2ccccn2c1-c1ccc(F)cc1`, the figure is 602 s.

`CC(C)n1c(=O)c(Nc2cccc(Cl)c2)nc2ccncc21` returned an RP-LC retention time of 649 s. The same measure for `Cc1cc(C(=O)N2CCOCC2)nn1CC(=O)NCCc1c[nH]c2ccccc12`: 637 s.

Regarding `CC1CCCN(C(=O)c2cn(-c3cc(-c4nc(C5CC5)no4)ccn3)cn2)C1` (stereo not given), the RP-LC retention time is 887 s. As for `COc1ccc(Cl)cc1C(=O)NC1(c2nc(C)no2)CCCCC1`, the figure is 1010 s; as for `COc1cccc(-n2c(N3CCCC(C(=O)NC4CCCC4)C3)nc3ccsc3c2=O)c1` (stereo not given), 818 s. The same measure for `CCC(=O)Nc1ccc(CCc2nc3ccc(C(=O)NC4CC4)cc3[nH]2)cc1`: 582 s; for `O=C(CCn1c(=O)sc2ccccc21)Nc1ccc(Br)cc1`: 884 s. `COC(=O)C1=CN(c2ccc(F)cc2)c2ccc(F)cc2S1(=O)=O` came in with an RP-LC retention time of 847 s.

In the case of `CCC(C)NC(=O)c1cc2c(s1)N(CC1CC1)CCCC2` (stereo not given), the RP-LC retention time was determined as 1090 s.

Take `CC(C)=C1SC(=O)N(CC(=O)Nc2ccc(S(N)(=O)=O)cc2)C1=O`: the RP-LC retention time is 672 s. The compound `CC(C)CN1CCN(S(=O)(=O)c2cc(-c3nnc(C4CC4)o3)co2)CC1` displayed an RP-LC retention time of 622 s. As for `c1cncc(CN2CCC(n3ncc4c(N5CCOCC5)nc(-c5ccc6[nH]ccc6c5)nc43)CC2)c1`, the figure is 675 s. As for `Cc1noc(-c2cccn2Cc2ccccc2Cl)n1`, the figure is 1110 s; as for `Cc1cccc(S(=O)(=O)N2CCC(c3cc(=O)n4nccc4n3C)CC2)c1`, 718 s; as for `COc1ccc(NS(=O)(=O)c2cc3n(c2)CCN(CC(C)C)C3=O)cc1Cl`, 828 s. The same measure for `NC(=O)C1CCN(C(=O)Cc2csc(NC(=O)Nc3ccccc3)n2)CC1`: 622 s.

As for `O=C(Cn1cccn1)N1CC(F)(F)C[C@H]1c1nc(C2CC2)no1`, the RP-LC retention time is 723 s.

Compound `Cc1sc(-c2nc(C(C)C)cs2)cc1S(=O)(=O)Nc1ccccc1F` gave an RP-LC retention time of 1170 s. Consider `O=C(c1cncc(Br)c1)N1CCC(Cc2nnc(-c3ccccc3)o2)CC1`, for which the RP-LC retention time was 782 s.

`Cn1ncc2c3ccccc3n(CCCC(=O)NCc3cccnc3)c2c1=O` came in with an RP-LC retention time of 612 s.

Compound `CCc1nnc(-c2cn(CC(=O)NCc3cccc(Br)c3)c3ccccc23)o1` displayed an RP-LC retention time of 867 s. With `Cn1c(C2CCN(C(=O)Nc3ccc(Cl)cc3)CC2)cc(=O)n2nccc12`, the RP-LC retention time is 676 s. The same measure for `CCCCCn1c(=O)c2ccccc2n(Cc2nc(-c3cccc(OCC)c3)no2)c1=O`: 1350 s; for `O=S(=O)(c1cccn2c(SCc3ccccc3Cl)nnc12)N1CCCCC1`: 927 s; for `COc1ccccc1NC(=O)N1CCN(Cc2nc3cc(Cl)ccc3o2)CC1`: 771 s.

`Cc1c(Cl)cccc1NC(=O)N1CCc2c(c(COc3ccccc3)nn2C)C1` registered an RP-LC retention time of 891 s.

Turning to `Cc1cc(C(=O)CN2CCN(C)CC2)c(C)n1-c1cccc(C(F)(F)F)c1`, the RP-LC retention time worked out at 588 s. The same measure for `Cn1nc(C(=O)NCc2cc(-c3cccs3)on2)ccc1=O`: 650 s; for `CCCc1nnsc1C(=O)Nc1nnc(-c2cc3cccc(OC)c3o2)o1`: 1170 s. As for `Cc1c(C(=O)N2CCC(C)CC2)cnn1-c1cc(-c2nc(C(C)(C)C)no2)ccn1`, the figure is 1240 s; as for `CCn1ccc(NC(=O)NC2CCCCC2)n1`, 779 s.

On to `Cc1ccccc1OCC(O)CN1CCN(c2ccc(Cl)cc2)CC1` (stereo not given), for which the RP-LC retention time was found to be 787 s.

Regarding `COCCNC(=O)C(=O)Nc1ccc(Br)cc1`, the RP-LC retention time is 795 s.

With `O=c1oc2c(-c3ccc([N+](=O)[O-])cc3)cc(O)cc2s1`, the RP-LC retention time was 829 s.

In the case of `CCOC(=O)C1CCN(C(=O)CCc2cc3cc(C)ccc3[nH]c2=O)CC1`, the RP-LC retention time was 729 s.

Take `O=C(CN1C(=O)CCCc2cc(S(=O)(=O)N3CCCCCC3)ccc21)NCc1ccc(F)cc1`: the RP-LC retention time was found to be 919 s. In the case of `Cc1cc(C)cc(-c2nnc3ccc(Cl)nn23)c1`, the RP-LC retention time was determined as 859 s. The same measure for `CN1C(=O)CCc2cc(NS(=O)(=O)c3ccc(Br)s3)ccc21`: 801 s; for `COc1cccc(CNC2=NCCNC23CCN(S(=O)(=O)c2ccc(C(C)C)cc2)CC3)c1`: 836 s; for `O=C1CC(NC(=O)C2(c3ccccc3)CCOCC2)CN1C1CC1` (stereo not given): 621 s. As for `CC(C)c1noc(-c2cc(=O)n(CC(=O)Nc3ccc(F)cc3F)c3ccccc23)n1`, the figure is 1020 s; as for `CC1CCN(S(=O)(=O)c2ccc(-c3nnc(C(=O)NCc4ccccc4)o3)cc2)CC1`, 1040 s; as for `O=C(NCC1CCCO1)C1CCN(Cc2cc3ccccc3n2Cc2ccccc2Cl)CC1` (stereo not given), 731 s. `CCOC(=O)N1CCN(C(=O)Nc2nc(CC(=O)NC3CCCCCC3)cs2)CC1` came in with an RP-LC retention time of 704 s. The same measure for `O=C(c1ccc(Br)o1)N1CCC(n2cnnc2C2CC2)CC1`: 631 s.

On to `Cc1noc(C)c1CCNC(=O)C(C)n1c2ccccc2c2cnn(C)c(=O)c21` (stereo not given), for which the RP-LC retention time stood at 741 s.

As for `O=C(NCc1csc(-c2ccccc2)n1)C1CCN(S(=O)(=O)c2ccc3[nH]c(=O)oc3c2)CC1`, the RP-LC retention time is 758 s. As for `CC1CCN(C(=O)C2=CN(c3ccc4c(c3)OCCO4)c3ccccc3S2(=O)=O)CC1`, the figure is 899 s; as for `Cc1ccc(NS(=O)(=O)c2cc3n(c2)CCCNC3=O)cc1C`, 658 s. Compound `CCN(CC)C(=O)c1cnc2nc(C)ccc2c1Nc1ccc(C(C)=O)cc1` displayed an RP-LC retention time of 589 s. As for `CC(C)c1nc(C2CN(C(=O)Nc3cc(F)cc(F)c3)C2)n(C)n1`, the figure is 717 s; as for `Cc1ccc(N2CC(c3nc(-c4cccnc4)no3)CC2=O)cc1Cl` (stereo not given), 862 s; as for `O=C(COc1ccccc1)Nc1nc(-c2ccccc2)cs1`, 1050 s. Regarding `O=S(=O)(c1ccc(F)c(Cl)c1)N1CC(F)(F)C[C@H]1CN1CCc2ccccc2C1`, the RP-LC retention time is 791 s.

The compound `Cc1ccc(CN2C[C@@H](CO)[C@H](c3ccccn3)C2)nc1` came in with an RP-LC retention time of 559 s. With `Cn1nnnc1C1CCCN(S(=O)(=O)Cc2ccccc2)C1` (stereo not given), the RP-LC retention time is 751 s. As to `O=C(CCc1c[nH]c2ccccc12)N1CCN(C(=O)c2cc(-c3ccncc3)n[nH]2)CC1`, the RP-LC retention time is 807 s.

In turn, `CCOc1ccc(-n2c(=O)c3sccc3n(Cc3nc(-c4cccc(OC)c4)no3)c2=O)cc1` came in with an RP-LC retention time of 1000 s.
